Earlier results as cited in patent US5173423A, “Process for breeding a glabrous variety of rice crop and a glabrous plant” (Sumitomo Chemical Company Limited, priority 1990, dated 1992).

Test system: Ginbozu
Conditions: mutation breeding; induced variation: chlorosis; variety Ginbozu

SMILES	Frequency of occurrence of variants [%]
Nc1ncc2[nH]cnc2n1 [2-AP, 2-aminopurine]	0.57
O=c1[nH]cc(Br)c(=O)[nH]1 [5-BU, 5-bromouracil]	1.0
